# Test results from US10758534B2 (Vertex Pharmaceuticals Incorporated, priority 2014, dated 2020).
# Target: T1, F508del (Homo sapiens, UniProt P13569, DEL508-508)
# T1 construct: expressed in transfected cells
# Assay: Protocol 2: FRET membrane potential optical assay (VIPR), identification of correction compounds
# Type: cell-based
# Conditions: Table 3; compounds of Table 1 as modulators of CFTR activity; protocol not stated
# Outline: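 FRET read-out (CC2-DMPE donor, DiSBAC2(3) voltage-sensitive acceptor) of membrane depolarization on VIPR II. Corrector candidates incubated 16 hrs at 37° C. with NIH3T3 cells expressing F508del; temperature correction at 27° C. as positive control; stimulation by 10 μM forskolin, 20 μM genistein, chloride-free gluconate bath.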
# T1 sequence (P13569 with tags, fused parts or gaps DEL508-508): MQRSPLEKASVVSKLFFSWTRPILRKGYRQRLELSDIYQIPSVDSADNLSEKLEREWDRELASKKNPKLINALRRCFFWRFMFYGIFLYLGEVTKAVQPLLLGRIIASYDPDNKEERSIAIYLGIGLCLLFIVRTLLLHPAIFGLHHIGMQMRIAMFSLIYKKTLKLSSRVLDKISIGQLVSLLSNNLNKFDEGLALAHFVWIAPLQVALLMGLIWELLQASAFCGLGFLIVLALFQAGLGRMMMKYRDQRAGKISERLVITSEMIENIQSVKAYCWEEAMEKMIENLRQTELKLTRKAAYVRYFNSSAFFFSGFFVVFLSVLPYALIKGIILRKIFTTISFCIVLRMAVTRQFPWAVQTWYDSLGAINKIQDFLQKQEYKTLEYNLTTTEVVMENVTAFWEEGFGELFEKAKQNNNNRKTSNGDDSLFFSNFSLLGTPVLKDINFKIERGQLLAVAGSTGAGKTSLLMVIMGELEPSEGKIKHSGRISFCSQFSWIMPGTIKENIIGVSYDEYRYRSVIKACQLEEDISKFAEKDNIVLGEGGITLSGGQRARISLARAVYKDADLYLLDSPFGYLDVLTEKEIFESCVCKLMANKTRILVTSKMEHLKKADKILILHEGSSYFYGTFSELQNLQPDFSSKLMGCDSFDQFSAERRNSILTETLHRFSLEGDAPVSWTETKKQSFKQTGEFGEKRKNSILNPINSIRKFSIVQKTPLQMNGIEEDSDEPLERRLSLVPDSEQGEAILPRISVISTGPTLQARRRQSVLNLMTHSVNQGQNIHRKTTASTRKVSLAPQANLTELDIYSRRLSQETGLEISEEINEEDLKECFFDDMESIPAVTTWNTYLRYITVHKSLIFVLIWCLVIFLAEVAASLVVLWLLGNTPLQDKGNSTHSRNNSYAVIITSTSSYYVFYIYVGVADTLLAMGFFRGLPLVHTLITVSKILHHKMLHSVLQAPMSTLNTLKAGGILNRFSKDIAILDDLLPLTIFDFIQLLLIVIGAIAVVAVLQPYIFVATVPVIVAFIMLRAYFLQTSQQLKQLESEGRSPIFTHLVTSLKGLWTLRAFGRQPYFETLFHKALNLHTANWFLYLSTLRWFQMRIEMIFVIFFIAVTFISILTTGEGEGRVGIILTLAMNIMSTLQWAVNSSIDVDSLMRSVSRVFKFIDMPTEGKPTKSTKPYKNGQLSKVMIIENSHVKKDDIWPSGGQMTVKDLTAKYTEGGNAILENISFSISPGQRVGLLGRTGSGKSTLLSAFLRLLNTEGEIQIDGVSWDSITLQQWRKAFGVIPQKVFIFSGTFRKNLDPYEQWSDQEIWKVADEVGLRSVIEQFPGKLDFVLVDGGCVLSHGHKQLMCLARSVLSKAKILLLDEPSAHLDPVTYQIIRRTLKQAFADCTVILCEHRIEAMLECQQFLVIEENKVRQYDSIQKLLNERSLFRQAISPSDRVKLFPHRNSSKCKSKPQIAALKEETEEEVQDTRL
row,EC30,Structure (SMILES)
1,+++ (“+++” means <3 uM),"COc1ncccc1S(=O)(=O)NC(=O)C1c2cccc(-c3ccccc3)c2CN1Cc1c(C)cc(C)cc1C (centres unmarked) [Compound 427, N-[(2-methoxy-3-pyridyl)sulfonyl]-4-phenyl-2-[(2,4,6-trimethylphenyl)methyl]isoindoline-1-carboxamide]"
2,+++ (“+++” means <3 uM),"CCCc1ccccc1-c1cnc(Oc2c(C)cc(C)cc2C)c(C(=O)NS(=O)(=O)c2cccc(N)n2)c1 [Compound 429, N-[(6-amino-2-pyridyl)sulfonyl]-5-(2-propylphenyl)-2-(2,4,6-trimethylphenoxy)pyridine-3-carboxamide]"
3,+++ (“+++” means <3 uM),"C=Cc1ccc(C(=O)NS(=O)(=O)c2cccc(N)n2)c(Oc2c(C)cc(C)cc2C)n1 [Compound 430, N-[(6-amino-2-pyridyl)sulfonyl]-2-(2,4,6-trimethylphenoxy)-6-vinyl-pyridine-3-carboxamide]"
4,+++ (“+++” means <3 uM),"CC(C)Oc1ccc(-c2ccc(C(=O)NS(=O)(=O)c3cccc(N)n3)c(N3CCC(C)C(C)(C)C3)n2)cn1 (centres unmarked) [Compound 435, N-[(6-amino-2-pyridyl)sulfonyl]-6-(6-isopropoxy-3-pyridyl)-2-(3,3,4-trimethyl-1-piperidyl)pyridine-3-carboxamide]"
5,+++ (“+++” means <3 uM),"Cc1cc(C)c(Oc2nc(-c3ccc(OC(C)C)cc3)ccc2C(=O)NS(=O)(=O)c2cccc(N)n2)c(C)c1 [Compound 436, N-[(6-amino-2-pyridyl)sulfonyl]-6-(4-isopropoxyphenyl)-2-(2,4,6-trimethylphenoxy)pyridine-3-carboxamide]"
6,+++ (“+++” means <3 uM),"CC1CN(c2nc(-c3ccc(NC(C)C)nc3)ccc2C(=O)NS(=O)(=O)c2cccc(N)n2)C(C)(C)C1 (centres unmarked) [Compound 437, N-[(6-amino-2-pyridyl)sulfonyl]-6-[16-(isopropylamino)-3-pyridyl]-2-(2,2,4-trimethylpyrrolidin-1-yl)pyridine-3-carboxamide]"
7,+++ (“+++” means <3 uM),"CC(C)Oc1ccc(-c2ccc(C(=O)NS(=O)(=O)c3cccc(N)n3)c(N3CC[C@@H](C)[C@H]3C)n2)cn1 [Compound 441, N-[(6-amino-2-pyridyl)sulfonyl]-2-[(2R,3R)-2,3-dimethylpyrrolidin-1-yl]-6-(6-isopropoxy-3-pyridyl)pyridine-3-carboxamide]"
8,+ (“+” means greater than 10 uM),"Cc1cc(C(C)(C)C)cc(C)c1Cn1nc(C(C)(C)C)cc1C(=O)NS(=O)(=O)c1ccccc1 [Compound 443, N-(benzenesulfonyl)-5-tert-butyl-2-[(4-tert-butyl-2,6-dimethyl-phenyl)methyl]pyrazole-3-carboxamide]"
9,++ (“++” means between 3 uM and 10 uM),"Cc1ccc(-c2nc3c(cc2C(=O)NS(=O)(=O)c2cccc(N)n2)CCCC3(C)C)cc1 [Compound 444, N-[(6-amino-2-pyridyl)sulfonyl]-8,8-dimethyl-2-(p-tolyl)-6,7-dihydro-5H-quinoline-3-carboxamide]"
10,+ (“+” means greater than 10 uM),"CCOc1ccc(-c2ccc(C(=O)NS(=O)(=O)c3ccn[nH]3)c(N3CCC(C)CC3)n2)cc1 [Compound 445, 6-(4-ethoxyphenyl)-2-(4-methyl-1-piperidyl)-N-(1H-pyrazol-5-ylsulfonyl)pyridine-3-carboxamide]"
11,+++ (“+++” means <3 uM),"CC(C)Oc1ccc(-c2ccc(C(=O)NS(=O)(=O)c3ccn[nH]3)c(N3C[C@H](C)C[C@H](C)C3)n2)cn1 [Compound 446, 2-[(3R,5S)-3,5-dimethyl-1-piperidyl]-6-(6-isopropoxy-3-pyridyl)-N-(1H-pyrazol-5-ylsulfonyl)pyridine-3-carboxamide]"
12,+++ (“+++” means <3 uM),"Cc1cc(C)c(CN2C(C(=O)NS(=O)(=O)c3ccc(C)c(N)c3)c3ccccc3C2(C)C)c(C)c1 (centres unmarked) [Compound 448, N-(3-amino-4-methyl-phenyl)sulfonyl-3,3-dimethyl-2-[(2,4,6-trimethylphenyl)methyl]isoindoline-1-carboxamide]"
13,+ (“+” means greater than 10 uM),"COc1ncc(-c2ccc(C(=O)NS(=O)(=O)c3cccc(N)n3)c(Oc3c(C)cc(C)cc3C)n2)cn1 [Compound 449, N-[(6-amino-2-pyridyl)sulfonyl]-6-(2-methoxypyrimidin-5-yl)-2-(2,4,6-trimethylphenoxy)pyridine-3-carboxamide]"
14,+++ (“+++” means <3 uM),"Cc1cc(C)c(Oc2nc(-c3cccc(C)c3O)ccc2C(=O)NS(=O)(=O)c2cccc(N)n2)c(C)c1 [Compound 450, N-[(6-amino-2-pyridyl)sulfonyl]-6-(2-hydroxy-3-methyl-phenyl)-2-(2,4,6-trimethylphenoxy)pyridine-3-carboxamide]"
15,++ (“++” means between 3 uM and 10 uM),"Cc1cc(C)c(Oc2nc(-c3cccc4nn(C)cc34)ccc2C(=O)NS(=O)(=O)c2cccc(N)n2)c(C)c1 [Compound 451, N-[(6-amino-2-pyridyl)sulfonyl]-6-(2-methylindazol-4-yl)-2-(2,4,6-trimethylphenoxy)pyridine-3-carboxamide]"

# The next lines start with the compound.
row,Structure (SMILES),EC30
1,"CC(C)COc1cc(F)cc(-c2ccc(C(=O)NS(=O)(=O)c3ccn[nH]3)c(N3CCC(C(F)(F)F)CC3)n2)c1 [Compound 426, 6-(3-fluoro-5-isobutoxy-phenyl)-N-(1H-pyrazol-5-ylsulfonyl)-2-[14-(trifluoromethyl)-1-piperidyl]pyridine-3-carboxamide]",+++ (“+++” means <3 uM)
2,"C[C@@H]1CC[C@H](C)N1c1nc(-c2ccc(OC3CCC3)nc2)ccc1C(=O)NS(=O)(=O)c1cccc(N)n1 [Compound 428, N-[(6-amino-2-pyridyl)sulfonyl]-6-[6-(cyclobutoxy)-3-pyridyl]-2-[(2S,5R)-2,5-dimethylpyrrolidin-1-yl]pyridine-3-carboxamide]",+++ (“+++” means <3 uM)
3,"C#CC1CCCN(c2nc(-c3cc(F)cc(OCC(C)C)c3)ccc2C(=O)NS(=O)(=O)c2ccn[nH]2)C1 (centres unmarked) [Compound 431, 2-(3-ethynyl-1-piperidyl)-6-(3-fluoro-5-isobutoxy-phenyl)-N-(1H-pyrazol-5-ylsulfonyl)pyridine-3-carboxamide]",++ (“++” means between 3 uM and 10 uM)
4,"CC(C)COc1cccc(-c2ccc(C(=O)NS(=O)(=O)c3cccc(N)n3)c(N3[C@H](C)CC[C@@H]3C)n2)n1 [Compound 432, N-[(6-amino-2-pyridyl)sulfonyl]-2-[(2S,5R)-2,5-dimethylpyrrolidin-1-yl]-6-(6-isobutoxy-2-pyridyl)pyridine-3-carboxamide]",+++ (“+++” means <3 uM)
5,"CC(C)COc1cc(F)cc(-c2ccc(C(=O)NS(=O)(=O)c3cccc(N)n3)c(OC3CCOC3)n2)c1 (centres unmarked) [Compound 433, N-[(6-amino-2-pyridyl)sulfonyl]-6-(3-fluoro-5-isobutoxy-phenyl)-2-tetrahydrofuran-3-yloxy-pyridine-3-carboxamide]",+++ (“+++” means <3 uM)
6,"CCOc1ccc(-c2ccc(C(=O)NS(=O)(=O)c3nccnc3N)c(Oc3ccc(C)cc3C)n2)cc1 [Compound 434, N-(3-aminopyrazin-2-yl)sulfonyl-2-(2,4-dimethylphenoxy)-6-(4-ethoxyphenyl)pyridine-3-carboxamide]",+++ (“+++” means <3 uM)
7,"CC(C)COc1cc(F)cc(-c2ccc(C(=O)NS(=O)(=O)c3cccc(N)n3)c(OC3CCC(C)CC3)n2)c1 (centres unmarked) [Compound 438, N-[(6-amino-2-pyridyl)sulfonyl]-6-(3-fluoro-5-isobutoxy-phenyl)-2-(4-methylcyclohexoxy)pyridine-3-carboxamide]",+++ (“+++” means <3 uM)
8,"Cc1cc(C)c(Oc2nc(-c3ccc(F)cc3F)ccc2C(=O)NS(=O)(=O)c2cccc(N)n2)c(C)c1 [Compound 439, N-[(6-amino-2-pyridyl)sulfonyl]-6-(2,4-difluorophenyl)-2-(2,4,6-trimethylphenoxy)pyridine-3-carboxamide]",+++ (“+++” means <3 uM)
9,"CC(C)COc1ccc(-c2ccc(C(=O)NS(=O)(=O)c3cccc(N)n3)c(N3CC(C)CC3(C)C)n2)cc1 (centres unmarked) [Compound 440, N-[(6-amino-2-pyridyl)sulfonyl]-6-(4-isobutoxyphenyl)-2-(2,2,4-trimethylpyrrolidin-1-yl)pyridine-3-carboxamide]",+++ (“+++” means <3 uM)
10,"CC(C)COc1cc(F)cc(-c2ccc(C(=O)NS(=O)(=O)c3ccn[nH]3)c(N3CCCCC3C)n2)c1 (centres unmarked) [Compound 442, 6-(3-fluoro-5-isobutoxy-phenyl)-2-(2-methyl-1-piperidyl)-N-(1H-pyrazol-5-ylsulfonyl)pyridine-3-carboxamide]",+++ (“+++” means <3 uM)
11,"CC(C)COc1cc(F)cc(-c2ccc(C(=O)NS(=O)(=O)c3cccc(N)n3)c(N3CCC[C@@H]3c3ccccc3)n2)c1 [Compound 447, N-[(6-amino-2-pyridyl)sulfonyl]-6-(3-fluoro-5-isobutoxy-phenyl)-2-[(2R)-2-phenylpyrrolidin-1-yl]pyridine-3-carboxamide]",+++ (“+++” means <3 uM)
12,"CC(C)COc1cc(F)cc(-c2ccc(C(=O)NS(=O)(=O)c3cccc(N)n3)c(OC3CCC(C)C3)n2)c1 (centres unmarked) [Compound 452, N-[(6-amino-2-pyridyl)sulfonyl]-6-(3-fluoro-5-isobutoxy-phenyl)-2-(3-methylcyclopentoxy)pyridine-3-carboxamide]",+++ (“+++” means <3 uM)
13,"CC(C)COc1cc(F)cc(-c2ccc(C(=O)NS(=O)(=O)c3cccc(N)n3)c(N3CC=CC3)n2)c1 [Compound 453, N-[(6-amino-2-pyridyl)sulfonyl]-2-(2,5-dihydropyrrol-1-yl)-6-(3-fluoro-5-isobutoxy-phenyl)pyridine-3-carboxamide]",+++ (“+++” means <3 uM)
14,"C[C@@H]1CC[C@H](C)N1c1nc(-c2ccc(OCC3(C)CC3)nc2)ccc1C(=O)NS(=O)(=O)c1cccc(N)n1 [Compound 454, N-[(6-amino-2-pyridyl)sulfonyl]-2-[(2S,5R)-2,5-dimethylpyrrolidin-1-yl]-6-[6-[(1-methylcyclopropyl)methoxy]-3-pyridyl]pyridine-3-carboxamide]",+++ (“+++” means <3 uM)
